Reference: US20140114067A1, “BENZIMIDAZOLE DERIVATIVES AS MITOCHONDRIAL FUNCTION MODULATORS” (KOREA INSTITUTE OF SCIENCE AND TECHNOLOGY, priority 2012, published 2014)

Key:
HT-22 cells [1] = assay: Improvement in mitochondrial membrane potential dropped by amyloid beta (JC-1 dye); format: cell-based; details: compound 5 μM, amyloid beta 5 μM, 3 hours, JC-1 green:red ratio, amyloid beta damage = 0%, normal = 100%
Procedure: (§1) Meanwhile, the compound represented by Formula 1 according to the present invention is evaluated through a test to determine recovery of mitochondrial functions damaged by amyloid beta, as described in the following Test Example. After the test, the results are shown in terms of the percentages of mitochondrial function disorder caused by amyloid beta. The degree of mitochondrial function disorder caused by amyloid beta is taken as 0% and the normal condition in the absence of amyloid beta is shown as 100%.
To a transparent 96-well plate, HT-22 cells are inoculated in a number of 30,000 per well one day before the test. On the next day, JC-1 dye (Stratagen, USA) is diluted with Opti-MEM containing no phenol red to a concentration of 7.5 μM, and the resultant dilution is used to treat the cells for 1 hour and 15 minutes. The dyed cells are washed twice with phosphate buffer solution (PBS), followed by treatment with each compound to a final concentration of 5 μM per well. Then, the cells are cultured at 37° C. for 10 minutes. Particularly, for each drug, two wells are treated with amyloid beta (5 μM) and the other two wells are treated with the vehicle control (5 μM DMSO). Then, the cells are cultured at 37° C. for 3 hours. The fluorescence intensity of each well is read by using a fluorescence plate reader at 485/535 nm (green/J-monomer) and 560/595 nm (red/J-aggregate). Then, the ratio of green:red is calculated and the results are normalized by taking the change of the ratio between addition of amyloid beta and no-addition of amyloid beta in the vehicle control non-treated with drugs as 100%.

HT-22 cells [2] = assay: Recovery of ATP production capability reduced by amyloid beta (luciferin/luciferase); format: cell-based; details: compound 5 μM, amyloid beta 5 μM, 7 hours, amyloid beta vehicle control without drug = 0%
Procedure: as §1
To a transparent 96-well plate, HT-22 cells are inoculated in a number of 10,000 per well one day before the test, followed by treatment with each compound to a final concentration of 5 μM per well. The cells are cultured at 37° C. for 10 minutes. Particularly, for each drug, two wells are treated with amyloid beta (5 μM) and the other two wells are treated with the vehicle control (5 μM DMSO). After the treatment, the cells are cultured at 37° C. for 7 hours. The cells treated with each drug are washed twice with PBS, lysed with Triton X-100 (1% in TSBT buffer) and agitated at room temperature for 5 minutes. […] is used to determine the protein amount of each well, and the same amount of protein taken from each well is added to a white 96-well plate. Then, […] (Molecular Probe, USA) for ATP determination containing d-luciferin and luciferase is added thereto and emission peaks generated from each of the wells are determined. After the determination, the peaks are normalized by taking the vehicle control to which amyloid beta is added without treatment with any drug as 0%.

Row | Compound | Improvement in Membrane Potential (%) (5 μM) (HT-22 cells [1]) | ATP Production Capability Recovery (%) (5 μM) (HT-22 cells [2])
1 | COc1ccc(OC)c(-c2nc3ccccc3n2CC(=O)Nc2cc(C(C)C)ccc2C)c1 [Compound 1, 2-(2-(2,5-dimethoxyphenyl)-1H-benzo[d]imidazol-1-yl)-N-(5-isopropyl-2-methylphenyl)acetamide] | 41 | –
2 | Cc1ccc(C(C)C)cc1NC(=O)Cn1c(-c2ccccc2)nc2ccccc21 [Compound 4, N-(5-isopropyl-2-methylphenyl)-(2-phenyl-1H-benzo[d]imidazol-1-yl)acetamide] | 91 | –
3 | O=C(Cn1c(-c2cc(Cl)ccc2Cl)nc2ccccc21)Nc1cc(Cl)cc(Cl)c1 [Compound 5, N-(3,5-dichlorophenyl)-2-(2-(2,5-dichlorophenyl)-1H-benzo[d]imidazol-1-yl)acetamide] | 91 | –
4 | Cc1cccc(C(C)(C)C)c1NC(=O)Cn1c(-c2cc(Cl)ccc2Cl)nc2ccccc21 [Compound 7, N-(2-tert-butyl-6-methylphenyl)-2-(2-(2,5-dichlorophenyl)-1H-benzo[d]imidazol-1-yl)acetamide] | 41 | –
5 | Cc1cccc(C(C)(C)C)c1NC(=O)Cn1c(Cc2ccccc2)nc2ccccc21 [Compound 12, 2-(2-benzyl-1H-benzo[d]imidazol-1-yl)-N-(2-tert-butyl-6-methylphenyl)acetamide] | 38 | –
6 | CC(C)(C)c1cc(NC(=O)Cn2c(-c3ccccc3)nc3ccccc32)cc(C(C)(C)C)c1 [Compound 13, N-(3,5-di-tert-butylphenyl)-2-(2-phenyl-1H-benzo[d]imidazol-1-yl)acetamide] | 86 | –
7 | Cc1ccc(C(C)C)cc1NC(=O)Cn1c(-c2ccccc2)nc2ccccc21 [Compound 14, N-(5-isopropyl-2-methylphenyl)-2-(2-phenyl-1H-benzo[d]imidazol-1-yl)acetamide] | 73 | –
8 | O=C(Cn1c(-c2ccccc2)nc2ccccc21)Nc1cc(Cl)cc(Cl)c1 [Compound 15, N-(3,5-dichlorophenyl)-2-(2-phenyl-1H-benzo[d]imidazol-1-yl)acetamide] | 69 | –
9 | Cc1cccc(C(C)(C)C)c1NC(=O)Cn1c(-c2ccccc2)nc2ccccc21 [Compound 16, N-(2-tert-butyl-6-methylphenyl)-2-(2-phenyl-1H-benzo[d]imidazol-1-yl)acetamide] | 65 | 55
10 | COc1ccc(OC)c(Cc2nc3ccccc3n2CC(=O)Nc2cc(C(C)(C)C)cc(C(C)(C)C)c2)c1 [Compound 17, N-(3,5-di-tert-butylphenyl)-2-(2-(2,5-dimethoxybenzyl)-1H-benzo[d]imidazol-1-yl)acetamide] | 54 | 46
11 | COc1ccc(OC)c(Cc2nc3ccccc3n2CC(=O)Nc2cc(Cl)cc(Cl)c2)c1 [Compound 18, N-(3,5-dichlorophenyl)-2-(2-(2,5-dimethoxybenzyl)-1H-benzo[d]imidazol-1-yl)acetamide] | 68 | 94
12 | COc1ccc(OC)c(Cc2nc3ccccc3n2CC(=O)Nc2cc(C(C)C)ccc2C)c1 [Compound 19, 2-(2-(2,5-dimethoxybenzyl)-1H-benzo[d]imidazol-1-yl)-N-(5-isopropyl-2-methylphenyl)acetamide] | 81 | –
13 | Cc1ccc(C(C)C)cc1NC(=O)Cn1c(Cc2ccc(Cl)c(Cl)c2)nc2ccccc21 [Compound 21, 2-(2-(3,4-dichlorobenzyl)-1H-benzo[d]imidazol-1-yl)-N-(5-isopropyl-2-methylphenyl)acetamide] | 57 | –
14 | Cc1ccc(C(C)C)cc1NC(=O)Cn1c(Cc2c(Cl)cccc2Cl)nc2ccccc21 [Compound 23, 2-(2-(2,6-dichlorobenzyl)-1H-benzo[d]imidazol-1-yl)-N-(5-isopropyl-2-methylphenyl)acetamide] | 74 | 95
15 | CC(C)(C)c1cc(NC(=O)Cn2c(Cc3ccc(Cl)c(Cl)c3)nc3ccccc32)cc(C(C)(C)C)c1 [Compound 24, N-(3,5-di-tert-butylphenyl)-2-(2-(3,4-dichlorobenzyl)-1H-benzo[d]imidazol-1-yl)acetamide] | 42 | –
16 | Cc1ccc(C(C)C)cc1NC(=O)Cn1c(-c2cc(Cl)ccc2Cl)nc2cc(Cl)ccc21 [Compound 26, 2-(5-chloro-2-(2,5-dichlorophenyl)-1H-benzo[d]imidazol-1-yl)-N-(5-isopropyl-2-methylphenyl)acetamide] | 60 | –
17 | O=C(Cn1c(-c2cc(Cl)ccc2Cl)nc2cc(Cl)ccc21)Nc1cc(Cl)cc(Cl)c1 [Compound 27, 2-(5-chloro-2-(2,5-dichlorophenyl)-1H-benzo[d]imidazol-1-yl)-N-(3,5-dichlorophenyl)acetamide] | 77 | –
18 | CN1CCC(NC(=O)c2ccc(Cn3c(Cc4c(Cl)cccc4Cl)nc4ccccc43)cc2)CC1 [Compound 33, 4-((2-(2,6-dichlorobenzyl)-1H-benzo[d]imidazol-1-yl)methyl)-N-(1-methylpiperidin-4-yl)benzamide] | 81 | –
19 | O=C(NCCCN1CCCC1)c1ccc(Cn2c(Cc3c(Cl)cccc3Cl)nc3ccccc32)cc1 [Compound 35, 4-((2-(2,6-dichlorobenzyl)-1H-benzo[d]imidazol-1-yl)methyl)-N-(3-(pyrrolidin-1-yl)propyl)benzamide] | 79 | –
20 | CN1CCN(CCCNC(=O)c2ccc(Cn3c(Cc4c(Cl)cccc4Cl)nc4ccccc43)cc2)CC1 [Compound 36, 4-((2-(2,6-dichlorobenzyl)-1H-benzo[d]imidazol-1-yl)methyl)-N-(3-(4-methylpiperazin-1-yl)propyl)benzamide] | 86 | –
21 | O=C(NCCN1CCCCC1)c1ccc(Cn2c(Cc3c(Cl)cccc3Cl)nc3ccccc32)cc1 [Compound 38, 4-((2-(2,6-dichlorobenzyl)-1H-benzo[d]imidazol-1-yl)methyl)-N-(3-(piperidin-1-yl)ethyl)benzamide] | 89 | –
22 | O=C(NCCCN1CCOCC1)c1ccc(Cn2c(Cc3c(Cl)cccc3Cl)nc3ccccc32)cc1 [Compound 39, 4-((2-(2,6-dichlorobenzyl)-1H-benzo[d]imidazol-1-yl)methyl)-N-(3-morpholinopropyl)benzamide] | 76 | –
23 | CCN1CCCC1CNC(=O)c1ccc(Cn2c(CC(=O)Nc3cc(C(C)C)ccc3C)nc3ccccc32)cc1 (stereo not drawn) [Compound 41, N-((1-ethylpyrrolidin-2-yl)methyl)-4-((2-(2-(5-isopropyl-2-methylphenylamino)-2-oxoethyl)-1H-benzo[d]imidazol-1-yl)methyl)benzamide] | 68 | –
24 | Cc1ccc(C(C)C)cc1NC(=O)Cc1nc2ccccc2n1Cc1ccc(C(=O)NCCCN(C)C)cc1 [Compound 42, N-(3-(dimethylamino)propyl)-4-((2-(2-(5-isopropyl-2-methylphenylamino)2-oxoethyl)-1H-benzo[d]imidazol-1-yl)methyl)benzamide] | 68 | –
25 | CCN1CCCC1CNC(=O)c1ccc(CSc2nc3ccccc3n2CC(=O)Nc2cc(C(C)C)ccc2C)cc1 (stereo not drawn) [Compound 43, N-((1-ethylpyrrolidin-2-yl)methyl)-4-((1-(2-(5-isopropyl-2-methylphenylamino)2-oxoethyl)-1H-benzo[d]imidazol-2-ylthio)methyl)benzamide] | 70 | –
26 | Cc1ccc(C(C)C)cc1NC(=O)Cc1nc2ccccc2n1Cc1ccc(C(=O)NCCCN2CCCCC2)cc1 [Compound 44] | 80 | –
27 | Cc1ccc(C(C)C)cc1NC(=O)Cn1c(SCc2ccc(C(=O)NCCCN(C)C)cc2)nc2ccccc21 [Compound 45, N-(3-(dimethylamino)propyl)-4-((1-(2-(5-isopropyl-2-methylphenylamino)-2-oxoethyl)-1H-benzo[d]imidazol-2-ylthio)methyl)benzamide] | 59 | –
28 | Cc1ccc(C(C)C)cc1NC(=O)Cn1c(SCc2ccc(C(=O)NCCCN3CCCCC3)cc2)nc2ccccc21 [Compound 46] | 67 | –
29 | CN(C)C(=O)c1ccc(Cn2c(Cc3c(Cl)cccc3Cl)nc3ccccc32)cc1 [Compound 47, 4-((2-(2,6-dichlorobenzyl)-1H-benzo[d]imidazol-1-yl)methyl)-N,N-dimethylbenzamide] | 73 | –
